The record followed here is patent publication US11136299B2, “Benzodiazepine derivatives for use in the treatment of Chlamydiales infections” (priority 2015, dated 2021).

Holding throughout (format): cell-based
Experiment [1] relates to Chlamydia trachomatis (Ctr) strain L2/434/Bu. Description: Ctr infectivity assay, progeny infection, cellular protection by GFP microscopy quantification. As to conditions: HeLa229 cells, Ctr MOI1, progeny infection fixed 48 hpi, versus solvent-treated cells; for inhibition at 25 µM: Chlamydia trachomatis, HeLa 229, 48 h; for Cellular protection at 75 μM (%): 75 μM compound. From the text: (§1) Chlamydia trachomatis (Ctr). Laboratory-adapted strain L2/434/Bu (ATCC VR902B) was used in assays. Full biological and genetic information is available for this strain including complete genome sequence and defined proteome. This strain has a relatively low particle to infectivity ratio, perform efficient cell infection and has a higher viability than standard genital tract isolates with faster developmental cycle. Culture conditions have been described in (Wang Y., Kahane S., Cutcliffe L. T., Skilton R. J., Lambden P. R., Clarke I. N. Development of a transformation system for Chlamydia trachomatis: Restoration of glycogen biosynthesis by acquisition of a plasmid shuttle vector. PLoS Pathogen, 2011, 7(9): e1002258. doi: 10.1371/journal.ppat.1002258).
Compound application during Chlamydia trachomatis infection. HeLa229 cells were pretreated with Retro-1 and Retro-1 derivatives in concentrations of 25 μM and 75 μM for 1 hour until Chlamydia trachomatis (MOI1) were added to the cells. Compounds were present during infection. To obtain progeny infection, compound treated cells were lysed 24 h post infection (hpi) and lysate was used to infect fresh HeLa 229 cells. Infected cells of progeny infection were fixed with 4% Paraformaldehyde 48 hpi. Cells were stained for DAPI and Chlamydia trachomatis were detected by GFP-signal. Images are representative of n=2 independent experiments. Quantification of infected cells by Chlamydia trachomatis was realized from microscopy images with Image J software (FIG. 7) and cellular protection by compounds at 25 μM and 75 μM was then determined (Table 1) by comparison with solvent-treated cells (control) with the following equation: […]

The test system of experiment [2] is Simkania negevensis (Sn) strain Z. Kind of experiment: Sn infectivity assays (primary and progeny infection) in HeLa229 cells. The following applies: for effect on primary and progeny infection for Simkania / concentration at which maximal inhibition of Sn replication was observed: HeLa cells; for effect on primary and progeny infection for Simkania: GroEL western, inclusion size, inclusion number, microscopy; for concentration at which maximal inhibition of Sn replication was observed: tested at 25 and 75 μM, FIGS. 1-4; for effect on Sn inclusions (transmission electron microscopy): infected HeLa cells versus DMSO-treated control, FIG. 5. The protocol:
Simkania negevensis (Sn) strain Z (ATCC VR-1471) was prepared as described previously (Mehlitz A, Karunakaran K, Herweg J A, Krohne G, van de Linde S, Rieck E, Sauer M, Rudel T. The chlamydial organism Sn forms ER vacuole contact sites and inhibits ER-stress. Cell Microbiol 2014; 16(8):1224-1243).
Briefly, HeLa229 cells were grown to 50-70% confluence, were inoculated with Sn in RPMI1640 with 5% FBS, for 6 h at 35° C. in a humidified incubator at 5% CO2. Medium was replaced by infection medium (RPMI1640, Glutamax, 5% FBS, w/o HEPES) and growth was allowed for 3 days. Cells were mechanically detached and bacteria were released using ˜2-5 mm glass beads (Carl Roth). Low speed supernatant (600×g, 4° C. and 5 min) was subjected to high-speed centrifugation (20,000×g, 4° C. and 30 min) to pellet bacteria. Bacteria were washed twice with 5 ml SPG (250 mM sucrose, 50 mM sodium phosphate, 5 mM glutamate, pH 7.4), aliquoted and stored at −80° C. in SPG.
40,000 Hela cells were seeded in 12-well cluster plates, inhibitor-treated and infected as indicated in the respective experiment.
For infectivity assays cells were either fixed and stained at indicated time points (FIG. 2, 4; inclusion formation/primary infection) or bacteria were released via one freeze thaw cycle (−70° C./37° C.) followed by mechanical release through pipetting and transfer to fresh HeLa229 cells (1:25-1:50, progeny/infectivity). Cells were centrifuged for 1 h at 35° C. and medium exchanged to infection medium. Progeny was fixed at day 3 post infection and processed for staining (FIG. 3) or harvested for immunoblotting (FIG. 1). Infectivity assays were imaged on an automated fluorescence microscope Leica DMIR (FIG. 4). Numbers and average sizes of the SCV as well as host cell numbers were determined via GroEL and DAPI staining and images were analysed and quantified using FIJI (ImageJ) and Excel (Microsoft).
In progeny assay, bacteria are first grown in Hela299 cells treated with inhibitors, Retro-1 and VP-184 (25 and 75 μM), and the infectious particles from this primary infection are applied to fresh cells in the absence of inhibitor to measure the bacterial load (GroEL immunoblot) and inclusion formation (immunofluorescence microscopy).

For experiment [3], the system named is Chlamydia trachomatis (Ctr) strain L2/434/Bu. Kind of experiment: Ctr infectivity assay, primary and progeny infection, HSP60 immunoblot. The following applies: Retro-1 50-75 μM in the primary infection; HeLa229 cells; FIG. 6.
Excerpt: as §1, with “performs” for “perform”
Compound application during Ctr infection. HeLa229 cells were pretreated with Retro-1 in concentrations of 25, 50 and 75 μM for 30 min until Ctr (MOI1) were added to the cells. Retro-1 was present during infection.
Cells with primary infection were lysed 24 h post infection (hpi). To obtain progeny infection compound treated cells were lysed 48 hpi and lysate was used to infect fresh HeLa229 cells. Progeny infection was lysed 24 hpi and analyzed together with primary infection samples by immunoblot. Chlamydial growth was detected with antibodies against chlamydial HSP60 protein and Actin was used as loading control (FIG. 6).

In general, inhibition refers to the change of the read-out against control, counted positive when it falls. A lower inhibition goes with a weak effect. Take `O=C1CN=C(c2ccccc2)c2cc(Br)cc(Br)c2N1` [HA061, 7,9-dibromo-5-phenyl-1,3-dihydro-2H-benzo[e][1,4]diazepin-2-one]: in experiment [1] (25 μM compound), the inhibition at 25 µM was 57.8%.
Regarding `O=C1CN=C(c2ccccc2Cl)c2cc(Cl)ccc2N1` [HA197, 7-chloro-5-(2-chlorophenyl)-1,3-dihydro-2H-benzo[e][1,4]diazepin-2-one], the “Cellular protection at 75 μM (%)” value in experiment [1] worked out at 84.3%. In experiment [1] (25 μM compound), this compound yielded an inhibition at 25 µM of 90.6%.
In experiment [1] (25 μM compound), `CN1C(=O)CN=C(c2ccccc2Cl)c2cc(Cl)ccc21` [HA200, 7-chloro-5-(2-chlorophenyl)-1-methyl-1,3-dihydro-2H-benzo[e][1,4]diazepin-2-one] had an inhibition at 25 µM of 47%.
Still for that read-out and setting: the same measure for `O=C1CN(C2CCCC2)C(c2ccccc2)c2cc(Br)ccc2N1` (stereo not drawn) [HA229, 7-bromo-4-cyclopentyl-5-phenyl-1,3,4,5-tetrahydro-2H-benzo[e][1,4]diazepin-2-one]: 20.2%.
For the compound `CC1CCC(N2CC(=O)Nc3ccc(Br)cc3C2c2ccccc2)C1` (stereo not drawn) [HA280, 7-bromo-4-(3-methylcyclopentyl)-5-phenyl-1,3,4,5-tetrahydro-2H-benzo[e][1,4]diazepin-2-one], in experiment [1] (25 μM compound), the “Cellular protection at 25 μM (%)” value is “full protection” and the inhibition at 25 µM was 100%.
With `CCC(=O)N1CC(=O)Nc2ccc(Br)cc2C1c1ccccc1` (stereo not drawn) [Retro-1, 7-bromo-5-phenyl-4-propionyl-1,3,4,5-tetrahydro-2H-benzo[e][1,4]diazepin-2-one], in experiment [2], the “effect on primary and progeny infection for Simkania” value is “inhibitor effect on primary and progeny infection”; the “concentration at which maximal inhibition of Sn replication was observed” value is 75 µM; the “effect on Sn inclusions (transmission electron microscopy)” value is “inclusions were smaller”. For the same compound, the “infectivity in the Ctr progeny (HSP60 immunoblot)” value in experiment [3] is listed as “significant reduced infectivity in the progeny”. Moreover, in experiment [1], the “Cellular protection at 75 μM (%)” value worked out at 2.4%. This compound displayed an inhibition at 25 µM in experiment [1] (25 μM compound) of 26.5%.
For the compound `O=C1CN=C(c2ccccc2)c2cc(Br)ccc2N1` [VP173, 7-bromo-5-phenyl-1,3-dihydro-2H-benzo[e][1,4]diazepin-2-one], the “Cellular protection at 75 μM (%)” value is listed as 100% in experiment [1] and “full protection” in experiment [1] (listed as VP 173). In addition, 25 µM produced 61.5% inhibition in experiment [1] (25 μM compound).
With `O=C1CNC(c2ccccc2)c2cc(Br)ccc2N1` (stereo not drawn) [VP174, 7-bromo-5-phenyl-1,3,4,5-tetrahydro-2H-benzo[e][1,4]diazepin-2-one], the “Cellular protection at 75 μM (%)” value in experiment [1] was determined as 52.8%. Besides, in experiment [1] (25 μM compound), the inhibition at 25 µM came out at 27.6%.
As to `CCCN1CC(=O)Nc2ccc(Br)cc2C1c1ccccc1` (stereo not drawn) [VP-184, 7-bromo-5-phenyl-4-propyl-1,3,4,5-tetrahydro-2H-benzo[e][1,4]diazepin-2-one], in experiment [2], the “effect on primary and progeny infection for Simkania” value was “inhibitor effect on primary and progeny infection”; the “concentration at which maximal inhibition of Sn replication was observed” value was determined as 25 µM; the “effect on Sn inclusions (transmission electron microscopy)” value was “strongly reduced Sn inclusion formation, size, numbers and Sn replication”.
